Test system: 519858-162-T-J1-PDC complex spheroid viability
Test: Anticancer human tumor 519858-162-T-J1-PDC patient-derived colon adenocarcinoma cell line growth inhibition [GQUAD]
Details: for IC50: curve of first compound; for viability, T/C: stronger effect = lower value
In short: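 Viability of tumor cells grown as complex spheroids with endothelial and stromal cells, exposed to drug combinations. Top concentration at or near clinical Cmax (else 10 microM), diluted in half-log increments.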

[1] = second compound 0.0316 µM, first compound 0.0316 µM
[2] = second compound 0.0316 µM, first compound 0.316 µM
[3] = second compound 0.1 µM, first compound 0.0316 µM
[4] = second compound 0.1 µM, first compound 0.316 µM
[5] = second compound 0.316 µM, first compound 0.0316 µM
[6] = second compound 0.316 µM, first compound 0.316 µM
[7] = second compound 1 µM, first compound 0.0316 µM
[8] = second compound 1 µM, first compound 0.316 µM
[9] = second compound 3.16 µM, first compound 0.0316 µM
[10] = second compound 3.16 µM, first compound 0.316 µM
[11] = second compound 10 µM, first compound 0.0316 µM
[12] = second compound 10 µM, first compound 0.316 µM
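Wherever viability, T/C is given: 100% = DMSO vehicle control viability.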

In the case of `Cc1[nH]c2ccccc2c1CCNCc1ccc(/C=C/C(=O)NO)cc1` + Cc1[nH]c2ccc(F)cc2c1-c1nc2c3cccnc3c3ncccc3c2[nH]1, the IC50 (second compound 0.0316 µM) is reported as over 316 nM, the IC50 (second compound 0.1 µM) is reported as 91 nM and the IC50 (second compound 0.316 µM) is reported as 165 nM. The IC50 (second compound 1 µM) was over 316 nM, the IC50 (second compound 3.16 µM) was over 316 nM and the IC50 (second compound 10 µM) was 134 nM. It also gave a viability, T/C (second compound 0.0316 µM, first compound 0.000999 µM) of 99.7%, a viability, T/C (second compound 0.0316 µM, first compound 0.00316 µM) of 117% and a viability, T/C (second compound 0.0316 µM, first compound 0.00999 µM) of 115%. The viability, T/C [1] was 120%, the viability, T/C (second compound 0.0316 µM, first compound 0.0999 µM) was 64.1% and the viability, T/C [2] was 49.7%. The viability, T/C (second compound 0.1 µM, first compound 0.000999 µM) was 82.1%, the viability, T/C (second compound 0.1 µM, first compound 0.00316 µM) was 128% and the viability, T/C (second compound 0.1 µM, first compound 0.00999 µM) was 117%. The viability, T/C [3] was 88.3%, the viability, T/C (second compound 0.1 µM, first compound 0.0999 µM) was 42% and the viability, T/C [4] was 51.3%. It also gave a viability, T/C (second compound 0.316 µM, first compound 0.000999 µM) of 113%, a viability, T/C (second compound 0.316 µM, first compound 0.00316 µM) of 67.8% and a viability, T/C (second compound 0.316 µM, first compound 0.00999 µM) of 76%. The viability, T/C [5] was 113%, the viability, T/C (second compound 0.316 µM, first compound 0.0999 µM) was 59.8% and the viability, T/C [6] was 37.2%. The viability, T/C (second compound 1 µM, first compound 0.000999 µM) was 107%, the viability, T/C (second compound 1 µM, first compound 0.00316 µM) was 54.1% and the viability, T/C (second compound 1 µM, first compound 0.00999 µM) was 86.5%. It also gave a viability, T/C [7] of 73.3%, a viability, T/C (second compound 1 µM, first compound 0.0999 µM) of 54.5% and a viability, T/C [8] of 53.2%. For the same molecule, the viability, T/C (second compound 3.16 µM, first compound 0.000999 µM) was 65.3%, the viability, T/C (second compound 3.16 µM, first compound 0.00316 µM) was 56.5% and the viability, T/C (second compound 3.16 µM, first compound 0.00999 µM) was 64.8%. It also gave a viability, T/C [9] of 54%, a viability, T/C (second compound 3.16 µM, first compound 0.0999 µM) of 70.2% and a viability, T/C [10] of 46.7%. The viability, T/C (second compound 10 µM, first compound 0.000999 µM) was 76.9%, the viability, T/C (second compound 10 µM, first compound 0.00316 µM) was 77.7% and the viability, T/C (second compound 10 µM, first compound 0.00999 µM) was 55%. For the same molecule, the viability, T/C [11] was 65.5%, the viability, T/C (second compound 10 µM, first compound 0.0999 µM) was 52.4% and the viability, T/C [12] was 43.2%.

For `O=C(NO)c1cnc(N2CCN(S(=O)(=O)c3ccc4ccccc4c3)CC2)nc1` + Cc1[nH]c2ccc(F)cc2c1-c1nc2c3cccnc3c3ncccc3c2[nH]1, the IC50 (second compound 0.0316 µM) was 353 nM, the IC50 (second compound 0.1 µM) was 242 nM and the IC50 (second compound 0.316 µM) was 311 nM. It also gave an IC50 (second compound 1 µM) of 251 nM, an IC50 (second compound 3.16 µM) of 204 nM and an IC50 (second compound 10 µM) of 195 nM. For the same molecule, the viability, T/C [1] was 82.3%, the viability, T/C (second compound 0.0316 µM, first compound 0.1 µM) was 82.8% and the viability, T/C [2] was 53.8%. It also gave a viability, T/C (second compound 0.0316 µM, first compound 1 µM) of 10%, a viability, T/C (second compound 0.0316 µM, first compound 3.16 µM) of 0.42% and a viability, T/C (second compound 0.0316 µM, first compound 10 µM) of 0.52%. The viability, T/C [3] was 102%, the viability, T/C (second compound 0.1 µM, first compound 0.1 µM) was 102% and the viability, T/C [4] was 34.3%. For the same molecule, the viability, T/C (second compound 0.1 µM, first compound 1 µM) was 8.48%, the viability, T/C (second compound 0.1 µM, first compound 3.16 µM) was 0.31% and the viability, T/C (second compound 0.1 µM, first compound 10 µM) was 0.42%. The viability, T/C [5] was 85.4%, the viability, T/C (second compound 0.316 µM, first compound 0.1 µM) was 95.8% and the viability, T/C [6] was 48.9%. The viability, T/C (second compound 0.316 µM, first compound 1 µM) was 8.61%, the viability, T/C (second compound 0.316 µM, first compound 3.16 µM) was 0.35% and the viability, T/C (second compound 0.316 µM, first compound 10 µM) was 1.29%. It also gave a viability, T/C [7] of 75.9%, a viability, T/C (second compound 1 µM, first compound 0.1 µM) of 77.4% and a viability, T/C [8] of 43%. The viability, T/C (second compound 1 µM, first compound 1 µM) was 7.91%, the viability, T/C (second compound 1 µM, first compound 3.16 µM) was 0.49% and the viability, T/C (second compound 1 µM, first compound 10 µM) was 1.27%. For the same molecule, the viability, T/C [9] was 83%, the viability, T/C (second compound 3.16 µM, first compound 0.1 µM) was 87.8% and the viability, T/C [10] was 28.2%. It also gave a viability, T/C (second compound 3.16 µM, first compound 1 µM) of 5.99%, a viability, T/C (second compound 3.16 µM, first compound 3.16 µM) of 1.44% and a viability, T/C (second compound 3.16 µM, first compound 10 µM) of 0.36%. For the same molecule, the viability, T/C [11] was 64.7%, the viability, T/C (second compound 10 µM, first compound 0.1 µM) was 69.7% and the viability, T/C [12] was 36.7%. It also gave a viability, T/C (second compound 10 µM, first compound 1 µM) of 13.9%, a viability, T/C (second compound 10 µM, first compound 3.16 µM) of 0.79% and a viability, T/C (second compound 10 µM, first compound 10 µM) of 0.64%.
